Measured values taken from patent US20240199555A1, “APPLICATIONS OF BIASED LIGANDS OF THE SEROTONIN 5-HT7 RECEPTOR FOR THE TREATMENT OF PAIN, MULTIPLE SCLEROSIS AND THE CONTROL OF THERMOREGULATION” (Centre National de la Recherche Scientifique, priority 2021, published 2024).

Assays:
human 5-HT7a receptor = human 5-HT7a receptor (Homo sapiens (Human), UniProt P34969); assay: Radioligand binding competition, filtration binding assay, 5-HT7a; conditions: affinity on 5-HT7 receptor, table of new compounds
human 5-HT2A receptor = human 5-HT2A receptor (Homo sapiens (Human), UniProt P28223); assay: Radioligand binding competition, 5-HT2A; conditions: selectivity panel
Method: (§1) FIG. 14: Testing of 8 molecules for radioligand binding competition activity on recombinant human 5-HT1A, 5-HT2A, 5-HT2Cedited, 5-HT6, 5-HT7 and D2(long) receptors using filtration binding assays.
(§2) Radioligand Binding experiments were conducted with Epics Therapeutics membrane preparations. Receptor accession numbers, cellular background and reference compounds are shown in this table.
(§3) The new compounds have been tested by radioligand binding competition activity at the human 5-HT1A (FAST-0500B), 5-HT2A (FAST-0505B), 5-HT2Cedited (FAST-0507B), 5-HT6 (FAST-0509B), 5-HT7a (FAST-05111B) and D2(long) (FAST-0101B) receptors at seven (7) concentrations, in duplicate. […] Reference values thus obtained for the test were compared to historical values obtained from the same receptor and used to validate the experimental session. For replicate determinations, the maximum variability tolerated in the test was of +/−20% around the average of the replicates.
(§4) Dose-response data from test compounds were analyzed with XLfit (IDBS) software using nonlinear regression applied to a sigmoidal dose-response model and the following equation: • XL Fit fit Model 203: 4 Parameter Logistic Model • A: Bottom • B: TOP • C: LogEC50 • D: Hill

[1] = target: human 5-HT2Cedited receptor (Homo sapiens, UniProt P28335); assay: Radioligand binding competition, 5-HT2Cedited; conditions: selectivity panel
Method: as §1, §2, §3, §4

5-HT7(b) receptors = 5-HT7(b) receptors (Homo sapiens, UniProt P34969); assay: BRET between 5-HT7-RLuc and Venus-mini G proteins (G protein recruitment); format: cell-based
Method: For −mGi, mG12 and mGq cells were also transfected with a receptor described as positively coupled to the G protein: Cells expressing the Adenosine 2 receptor A2R, the Histamine3 receptor H3R or the Ghrelin receptor GHSR were stimulated with adenosine, imetit or ghrelin respectively. Ligand mediated BRET changes are expressed as induced BRET changes which were generated by subtracting at each point the signal obtained on cells incubated with PBS (without ligand).
To evaluate Gαs, Gαq, Gαi recruitment, cells were transiently transfected with 5-HT7R(b) C—terminally fused with donor Rluc (5-HT7R-Rluc) and acceptor NESVenus. mGs, or NES-Venus-mGsq or NES-Venus-mGsi (kindly provided by Pr. N. A. Lambert, Augusta University, Augusta, USA) (Ayoub, M. A., Landomiel, F., Gallay, N., Jegot, G., Poupon, A., Crepieux, P., and Reiter, E. (2015) Assessing Gonadotropin Receptor Function by Resonance Energy Transfer-Based Assays. Front Endocrinol (Lausanne) 6, 130; Wan, Q., Okashah, N., Inoue, A., Nehme, R., Carpenter, B., Tate, C. G., and Lambert, N. A. (2018) Mini G protein probes for active G protein-coupled receptors (GPCRs) in live cells. […] Data were plotted and analysed using GraphPad Prism 4 software for Windows (GraphPad Software Inc, San Diego, CA, USA). […]

Sprague-Dawley male rats = assay: Formalin induced inflammatory pain model; format: in vivo; conditions: single s.c., Serodolin 10 mg/kg, MOA51 1 mg/kg, morphine
Method: FIG. 18: Effect of a single administration of Serodolin (AIC01) or MOA51 in the formalin test in rats. Effect of a single subcutaneous administration of Serodolin (AIC01) or MOA51 in the formalin test in rats. In this test, Sprague-Dawley male rats received unilateral injection of a 2.5% formalin solution (50 μl) into the plantar aspect of the hindpaw on testing day (i.e. D0). Control group received Vehicle (20% DMSO/5% Tween 80/NaCl). Serodolin was subcutaneously (sc) administrated at 10 mg/kg and MOA51 at 1 mg/kg. Positive control animals were treated with morphine (3 mg/kg, sc). Paw licking time was measured. Results are expressed as mean±s.e.m. Percentage are expressed as decreased as compared to the vehicle-treated group and represented as figure (B). ***: p<0.001 as compared to the vehicle-treated group, Bonferroni's test after significant Two-way Repeated Measures ANOVA. NS: Non-significant.
Sprague-Dawley male rats (n=10 rats per group) received unilateral injection of a 2.5% formalin solution (50 μl) into the plantar aspect of the hindpaw on testing day (i.e. D0). Experience was separated into 4 groups of animals. Formalin animals+vehicle-treated group; […]—Formalin animals+Sponsor's Serodolin (10 mg/kg), s.c.—Formalin animals+Sponsor's MOA51 (1 mg/kg), s.c.—Formalin animals+internal validator-treated group (Morphine at 4 mg/Kg, s.c.). Single subcutaneous administration of the Vehicle and Sponsor's Compound 30 min (or other timing depending on Sponsor's design) before formalin injection on testing day (i.e. D0)/Subcutaneous administration of Morphine 30 min before formalin injection on testing day (i.e. D0). Hindpaw licking time recorded in consecutive 5 minutes periods from 0 to 5 minutes (early phase) and 17 to 27 minutes (late phase) after formalin injection.
We evaluated the effect of Serodolin as well as MOA51 in rats in the formalin test, an acute and tonic pain model based on the use of a chemical stimulus. Subcutaneous injection of formalin into the right hindpaw produces a biphasic painful response of increasing and decreasing intensity for about 30 minutes after the injection. […] Although not significant, Serodolin, MOA51 and morphine have an inhibitory effect (−40%, −35% and −57% respectively) during the early phase.

[2] = Pharmacokinetic study in plasma and brain; format: in vivo, C57BL/6 mice; conditions: 5 mg/kg, subcutaneous
Method: FIG. 20: Pharmacokinetic study of E55888 and Serodolin. Concentration-time profile of E55888 (reference agonist) and Serodolin in plasma (A) and brain (B) following subcutaneous injection of a unique dose 5 mg/kg of each compound in C57BL/6 mice. Data represent the mean concentration±SEM of n=4 each time point.
The pharmacokinetic study was undertaken to evaluate and compare the quantity of Serodolin and E55888 in plasma and brain samples from C57BL/6 mice (Janvier, Le Genest France) at several time points. Seven weeks old C57BL/6 mice (n=4 animals per group) received by subcutaneous injection a unique dose (5 mg/kg) of Serodolin or E55888 (U103013S, Achemblock). Control group received vehicle (solution of 20% DMSO and 5% Tween 80 diluted in NaCl). […] Blank vehicle mouse brains homogenates and plasma were used to established standard curves of Serodolin or E55888. […] Study samples, brains homogenates and plasma, were prepared for protein precipitation by adding 85 μL of acetonitrile+5-CT to 20 μL of samples. LC-HRMS analysis for PK studies were performed on a maXis Q-TOF mass spectrometer (Bruker, Bremen, Germany) coupled to an U3000 RSLC UHPLC system (Dionex, Germering, Germany). Separation was obtained using an Acquity UPLC BEH C18 column (2.1×50 mm; 1.7 μm) (Waters, Saint-Quentin-en-Yvelines, France) thermostated at 40° C. with a gradient of water (solvent A) and acetonitrile (solvent B), both acidified with 0.1% formic acid at 500 μL/min. […] The samples were randomized prior analysis; 1.25 μL were injected for plasma and 8 μL for brains. […] Area were integrated from extracted ion chromatograms (EIC) of [M+H]+ ions using QuantAnalysis 4.4 software (Bruker) with a tolerance of ±0.005 u.
The pharmacokinetics profile of both compounds were evaluated. The inventors used liquid chromatography tandem mass spectrometry (UPLC-MS/MS) method to perform PK study and measure Serodolin vs E55888 levels in vivo.

Sequence of human 5-HT7a receptor (P34969 other isoform, or with tags, fused parts or gaps): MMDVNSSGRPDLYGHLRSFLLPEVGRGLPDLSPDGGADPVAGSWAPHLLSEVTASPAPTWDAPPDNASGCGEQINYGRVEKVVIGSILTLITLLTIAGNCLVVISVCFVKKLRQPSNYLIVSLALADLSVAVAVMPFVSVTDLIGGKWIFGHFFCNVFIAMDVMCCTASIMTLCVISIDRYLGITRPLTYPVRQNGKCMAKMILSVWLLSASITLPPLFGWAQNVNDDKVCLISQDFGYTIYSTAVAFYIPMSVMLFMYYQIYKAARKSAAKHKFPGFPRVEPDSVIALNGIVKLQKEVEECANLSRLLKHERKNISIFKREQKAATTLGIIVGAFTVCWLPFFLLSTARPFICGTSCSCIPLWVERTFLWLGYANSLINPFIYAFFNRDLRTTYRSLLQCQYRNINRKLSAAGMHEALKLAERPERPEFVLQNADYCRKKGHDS
Sequence of human 5-HT2Cedited receptor (P28335 33-458 limits assumed): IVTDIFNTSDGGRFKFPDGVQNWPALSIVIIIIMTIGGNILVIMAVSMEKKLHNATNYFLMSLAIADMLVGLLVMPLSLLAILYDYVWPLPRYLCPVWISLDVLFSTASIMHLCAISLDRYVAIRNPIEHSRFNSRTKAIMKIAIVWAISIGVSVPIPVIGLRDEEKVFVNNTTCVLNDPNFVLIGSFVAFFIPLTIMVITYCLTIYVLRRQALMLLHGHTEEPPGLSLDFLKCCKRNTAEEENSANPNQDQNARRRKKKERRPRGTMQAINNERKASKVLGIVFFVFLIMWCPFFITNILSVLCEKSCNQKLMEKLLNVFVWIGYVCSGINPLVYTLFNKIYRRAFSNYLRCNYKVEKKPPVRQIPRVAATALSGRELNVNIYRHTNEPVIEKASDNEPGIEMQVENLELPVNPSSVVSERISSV
Sequence of human 5-HT2A receptor (P28223 whole entry): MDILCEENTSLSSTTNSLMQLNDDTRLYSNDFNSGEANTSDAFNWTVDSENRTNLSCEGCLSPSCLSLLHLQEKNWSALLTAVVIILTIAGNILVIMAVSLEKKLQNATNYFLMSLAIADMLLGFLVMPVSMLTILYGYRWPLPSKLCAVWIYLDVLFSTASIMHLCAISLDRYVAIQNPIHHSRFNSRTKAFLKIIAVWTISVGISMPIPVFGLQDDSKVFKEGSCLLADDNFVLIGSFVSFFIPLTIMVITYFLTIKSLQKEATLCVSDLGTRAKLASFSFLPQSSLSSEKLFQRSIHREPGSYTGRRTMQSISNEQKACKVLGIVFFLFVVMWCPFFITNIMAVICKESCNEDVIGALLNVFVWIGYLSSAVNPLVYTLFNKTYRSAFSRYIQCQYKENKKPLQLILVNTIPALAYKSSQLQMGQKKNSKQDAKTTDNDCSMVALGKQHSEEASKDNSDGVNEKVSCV
Sequence of 5-HT7(b) receptors (P34969 whole entry, looked up): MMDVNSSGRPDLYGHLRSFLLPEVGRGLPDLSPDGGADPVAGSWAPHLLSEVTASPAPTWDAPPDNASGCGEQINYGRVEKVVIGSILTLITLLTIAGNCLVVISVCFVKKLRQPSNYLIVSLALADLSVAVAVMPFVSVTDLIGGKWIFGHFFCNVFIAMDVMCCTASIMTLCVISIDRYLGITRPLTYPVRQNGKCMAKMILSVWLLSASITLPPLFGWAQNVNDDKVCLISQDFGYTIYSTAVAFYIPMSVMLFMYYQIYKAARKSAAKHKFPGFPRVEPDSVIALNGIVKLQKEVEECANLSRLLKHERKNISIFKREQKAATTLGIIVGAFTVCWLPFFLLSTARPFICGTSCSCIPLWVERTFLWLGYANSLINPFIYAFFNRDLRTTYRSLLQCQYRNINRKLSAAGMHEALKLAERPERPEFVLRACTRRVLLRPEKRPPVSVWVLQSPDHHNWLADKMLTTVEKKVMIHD

SMILES: O=c1[nH]c2ccccc2n1CN1CCN(c2ccc(F)cc2)CC1 [Serodolin]
- IC50 (human 5-HT7a receptor): 1.14 nM
- Ki (human 5-HT7a receptor): 0.8 nM
- IC50 (human 5-HT2A receptor; read-out: RLB 5-HT2A IC50): 16.9 nM
- Ki (human 5-HT2A receptor; read-out: RLB 5-HT2A Ki): 2.8 nM
- IC50 ([1]; read-out: RLB 5-HT2Cedited IC50): 1110 nM
- Ki ([1]; read-out: RLB 5-HT2Cedited Ki): 182 nM
- Gαs recruitment (5-HT7(b) receptors; mGs BRET): behaved as inverse for Gαs recruitment
- Gαi, Ga12 or Gαq recruitment (5-HT7(b) receptors; mGsi, mG12, mGsq BRET): neither classical (5-CT, SB 269970) nor biased 5-HT7R ligands (Serodolin) were able to induce the Gαi, Ga12 or Gαq recruitment
- inhibitory effect on paw licking, early phase (Sprague-Dawley male rats; 0 to 5 minutes, not significant): −40%
- inhibition of licking, late phase (Sprague-Dawley male rats; 17 to 27 minutes): −80%
- passage of the brain blood barrier [2]: ability to pass the brain blood barrier
- time of maximum of detection ([2]; both in plasma and brain): 15 to 30 min
- maximum of detection in brain ([2]; brain): 0.4 ± 0.8 µg/mL
- maximum of detection in plasma ([2]; plasma): 2.9 ± 0.8 µg/mL
- time after which eliminated / undetectable ([2]; plasma and brain): 240 min
